Here are results for two molecules from patent publication US11977075B2, “Method of predicting personalized response to cancer treatment with immune checkpoint inhibitors, method of treating cancer, and kit therefor” (Rappaport Family Institute for Research in the Medical …, priority 2017, dated 2024).

For assay [1], the system named is EMT6 murine breast carcinoma. In words: EMT6 primary breast tumor model, ICI combined with SB-3CT. The following applies: combination with either anti-PD-1 or anti-PD-L1 vs anti-PD-1 or anti-PD-L1 monotherapy. The class given is in vivo, BALB/c mice. The method, then:
Control mice are injected with IgG antibody and vehicle (10% DMSO in normal saline). Mice receiving either anti-PD-1 or anti-PD-L1 monotherapies are also injected with vehicle (10% DMSO in normal saline). Mice receiving SB3-CT monotherapy are also injected with IgG control antibodies. Tumor growth and mouse survival are monitored. At endpoint (when tumors reach a size of ˜1500 mm^3), mice are sacrificed.

Assay [2] relates to cancer patients. The following applies: pooled data from clinical studies; cited from earlier work.

Take `O=S(=O)(CC1CS1)c1ccc(Oc2ccccc2)cc1` (centres unmarked) [SB-3CT, 2-(((4-phenoxyphenyl)sulfonyl)methyl)thiirane]: in assay [1], the increasing survival result was “more effective” and the reducing tumor size result was “more effective”.

Take ipilimumab: in assay [2], the “duration of clinical response” value is given as “around 3 years”; the “duration of clinical response, can last up to” value is listed as “up to 10 years”; the “subset of patients in which the therapeutic effect is observed” value is around 20%.
